# Test results taken from US10669242B2 (priority 2016, dated 2020).
# Target: T1, recombinant glucosyltransferase domain of C. difficile Toxin B/TcdB (Clostridioides difficile, UniProt P18177)
# T1 construct: 6-His (C); purchased R&D Systems 6246-GT
# Assay: biochemical
# T1 sequence (P18177 1-543): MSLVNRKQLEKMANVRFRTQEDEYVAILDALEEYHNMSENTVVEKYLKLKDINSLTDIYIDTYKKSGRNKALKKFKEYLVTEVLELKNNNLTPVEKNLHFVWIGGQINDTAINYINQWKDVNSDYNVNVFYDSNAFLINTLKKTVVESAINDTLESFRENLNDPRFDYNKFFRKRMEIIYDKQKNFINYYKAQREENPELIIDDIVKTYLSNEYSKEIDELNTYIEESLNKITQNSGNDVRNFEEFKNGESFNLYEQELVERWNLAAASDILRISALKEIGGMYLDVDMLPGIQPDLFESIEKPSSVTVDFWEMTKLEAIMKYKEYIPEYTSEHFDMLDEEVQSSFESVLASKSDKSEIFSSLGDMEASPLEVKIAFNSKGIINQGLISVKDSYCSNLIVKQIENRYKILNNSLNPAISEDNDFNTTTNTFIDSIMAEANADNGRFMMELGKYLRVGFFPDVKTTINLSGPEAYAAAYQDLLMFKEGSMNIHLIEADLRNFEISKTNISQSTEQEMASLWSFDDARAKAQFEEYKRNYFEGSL
row,Compound,IC50 [nM]
1,"O=C(NS(=O)(=O)c1ccccc1)c1ccc(CN2C(=O)c3ccc(Cl)cc3NC(=O)[C@H]2Cc2cccnc2)cc1 [Example 15a, (R)-4-((8-Chloro-2,5-dioxo-3-(pyridin-3-ylmethyl)-2,3-dihydro-1H-benzo[e][1,4]diazepin-4(5H)-yl)methyl)-N-(phenylsulfonyl)benzamide]",1000 to 10000
2,"CS(=O)(=O)NC(=O)c1ccc(CN2C(=O)c3ccc(Cl)cc3NC(=O)[C@H]2Cc2cccnc2)cc1 [Example 15b, (R)-4-((8-chloro-2,5-dioxo-3-(pyridin-3-ylmethyl)-2,3-dihydro-1H-benzo[e][1,4]diazepin-4(5H)-yl)methyl)-N-(methylsulfonyl)benzamide]",1000 to 10000
3,"O=C(NS(=O)(=O)c1ccc(Cl)cc1)c1ccc(CN2C(=O)c3ccc(Cl)cc3NC(=O)[C@H]2Cc2cccnc2)cc1 [Example 15c, (R)-4-((8-chloro-2,5-dioxo-3-(pyridin-3-ylmethyl)-2,3-dihydro-1H-benzo[e][1,4]diazepin-4(5H)-yl)methyl)-N-((4-chlorophenyl)sulfonyl)benzamide]",1000 to 10000
4,"COc1ccc(S(=O)(=O)NC(=O)c2ccc(CN3C(=O)c4ccc(Cl)cc4NC(=O)[C@H]3Cc3cccnc3)cc2)cc1 [Example 15d, (R)-4-((8-chloro-2,5-dioxo-3-(pyridin-3-ylmethyl)-2,3-dihydro-1H-benzo[e][1,4]diazepin-4(5H)-yl)methyl)-N-((4-methoxyphenyl)sulfonyl)benzamide]",1000 to 10000
5,"Cc1ccc(S(=O)(=O)NC(=O)c2ccc(CN3C(=O)c4ccc(Cl)cc4NC(=O)[C@H]3Cc3cccnc3)cc2)cc1 [Example 15e, (R)-4-((8-chloro-2,5-dioxo-3-(pyridin-3-ylmethyl)-2,3-dihydro-1H-benzo[e][1,4]diazepin-4(5H)-yl)methyl)-N-tosylbenzamide]",1000 to 10000
6,"Cc1ccc(NC(=O)c2ccc(CN3C(=O)c4ccc(N)cc4NC(=O)[C@H]3C)cc2)nc1 [Example 16a, (R)-4-((8-Amino-3-methyl-2,5-dioxo-2,3-dihydro-1H-benzo[e][1,4]diazepin-4(5H)-yl)methyl)-N-(5-methylpyridin-2-yl)benzamide]",1000 to 10000
7,"CC(=O)Nc1ccc2c(c1)NC(=O)[C@@H](C)N(Cc1ccc(C(=O)Nc3ccc(C)cn3)cc1)C2=O [Example 17a, (R)-4-((8-Acetamido-3-methyl-2,5-dioxo-2,3-dihydro-1H-benzo[e][1,4]diazepin-4(5H)-yl)methyl)-N-(5-methylpyridin-2-yl)benzamide]",100 to 999
8,"COCCC(=O)Nc1ccc2c(c1)NC(=O)[C@@H](C)N(Cc1ccc(C(=O)Nc3ccc(C)cn3)cc1)C2=O [Example 18a, (R)-4-((8-(3-Methoxypropanamido)-3-methyl-2,5-dioxo-2,3-dihydro-1H-benzo[e][1,4]diazepin-4(5H)-yl)methyl)-N-(5-methylpyridin-2-yl)benzamide]",1000 to 10000
9,"Cc1ccc(NC(=O)c2ccc(CN3C(=O)c4ccc(NC(=O)C(C)C)cc4NC(=O)[C@H]3C)cc2)nc1 [Example 18b, (R)-4-((8-isobutyramido-3-methyl-2,5-dioxo-2,3-dihydro-1H-benzo[e][1,4]diazepin-4(5H)-yl)methyl)-N-(5-methylpyridin-2-yl)benzamide]",10000 to 35000
10,"Cc1ccc(NC(=O)c2ccc(CN3C(=O)c4ccc(NC(=O)c5cc(C)on5)cc4NC(=O)[C@H]3C)cc2)nc1 [Example 18c, (R)-5-methyl-N-(3-methyl-4-(4-((5-methylpyridin-2-yl)carbamoyl)benzyl)-2,5-dioxo-2,3,4,5-tetrahydro-1H-benzo[e][1,4]diazepin-8-yl)isoxazole-3-carboxamide]",1000 to 10000
11,"Cc1ccc(NC(=O)c2ccc(CN3C(=O)c4ccc(NC(=O)c5ccccn5)cc4NC(=O)[C@H]3C)cc2)nc1 [Example 18d, (R)-N-(3-methyl-4-(4-((5-methylpyridin-2-yl)carbamoyl)benzyl)-2,5-dioxo-2,3,4,5-tetrahydro-1H-benzo[e][1,4]diazepin-8-yl)picolinamide]",10000 to 35000
12,"Cc1ccc(NC(=O)c2ccc(CN3C(=O)c4ccc(NC(=O)c5cccnc5)cc4NC(=O)[C@H]3C)cc2)nc1 [Example 18e, (R)-N-(3-methyl-4-(4-((5-methylpyridin-2-yl)carbamoyl)benzyl)-2,5-dioxo-2,3,4,5-tetrahydro-1H-benzo[e][1,4]diazepin-8-yl)nicotinamide]",1000 to 10000
13,"Cc1ccc(NC(=O)c2ccc(S(=O)(=O)N3Cc4ccc(Cl)cc4NC(=O)[C@H]3Cc3ccccn3)cc2)nc1 [Example 19a, (R)-4-((8-Chloro-2-oxo-3-(pyridin-2-ylmethyl)-2,3-dihydro-1H-benzo[e][1,4]diazepin-4(5H)-yl)sulfonyl)-N-(5-methylpyridin-2-yl)benzamide]",100 to 999
14,"O=C(Nc1ccccn1)c1ccc(S(=O)(=O)N2Cc3ccc(Cl)cc3NC(=O)[C@H]2Cc2ccccn2)cc1 [Example 19b, (R)-4-((8-chloro-2-oxo-3-(pyridin-2-ylmethyl)-2,3-dihydro-1H-benzo[e][1,4]diazepin-4(5H)-yl)sulfonyl)-N-(pyridin-2-yl)benzamide]",< 100
15,"O=C(Nc1ccccn1)c1ccc(S(=O)(=O)N2Cc3ccc(Cl)cc3NC(=O)[C@@H]2Cc2ccccn2)cc1 [Example 19c, (S)-4-((8-chloro-2-oxo-3-(pyridin-2-ylmethyl)-2,3-dihydro-1H-benzo[e][1,4]diazepin-4(5H)-yl)sulfonyl)-N-(pyridin-2-yl)benzamide]",100 to 999
16,"COc1ccc(NC(=O)c2ccc(S(=O)(=O)N3Cc4ccc(Cl)cc4NC(=O)[C@@H]3Cc3ccccn3)cc2)nc1 [Example 19d, (S)-4-((8-chloro-2-oxo-3-(pyridin-2-ylmethyl)-2,3-dihydro-1H-benzo[e][1,4]diazepin-4(5H)-yl)sulfonyl)-N-(5-methoxypyridin-2-yl)benzamide]",100 to 999
17,"Cc1cnc(NC(=O)c2ccc(S(=O)(=O)N3Cc4ccc(Cl)cc4NC(=O)[C@@H]3Cc3ccccn3)cc2)nc1 [Example 19e, (S)-4-((8-chloro-2-oxo-3-(pyridin-2-ylmethyl)-2,3-dihydro-1H-benzo[e][1,4]diazepin-4(5H)-yl)sulfonyl)-N-(5-methylpyrimidin-2-yl)benzamide]",100 to 999

row,Compound,IC50 [nM]
1,"COc1ccc(NC(=O)c2ccc(S(=O)(=O)N3Cc4ccc(Cl)cc4NC(=O)[C@H]3Cc3ccccn3)cc2)nc1 [Example 19f, (R)-4-((8-chloro-2-oxo-3-(pyridin-2-ylmethyl)-2,3-dihydro-1H-benzo[e][1,4]diazepin-4(5H)-yl)sulfonyl)-N-(5-methoxypyridin-2-yl)benzamide]",100 to 999
2,"Cc1cnc(NC(=O)c2ccc(S(=O)(=O)N3Cc4ccc(Cl)cc4NC(=O)[C@H]3Cc3ccccn3)cc2)nc1 [Example 19g, (R)-4-((8-chloro-2-oxo-3-(pyridin-2-ylmethyl)-2,3-dihydro-1H-benzo[e][1,4]diazepin-4(5H)-yl)sulfonyl)-N-(5-methylpyrimidin-2-yl)benzamide]",< 100
3,"COc1cnc(NC(=O)c2ccc(S(=O)(=O)N3Cc4ccc(Cl)cc4NC(=O)[C@H]3Cc3ccccn3)cc2)nc1 [Example 19h, (R)-4-((8-chloro-2-oxo-3-(pyridin-2-ylmethyl)-2,3-dihydro-1H-benzo[e][1,4]diazepin-4(5H)-yl)sulfonyl)-N-(5-methoxypyrimidin-2-yl)benzamide]",< 100
4,"O=C(Nc1ccccn1)c1ccc(C(=O)N2Cc3ccc(Cl)cc3NC(=O)[C@H]2Cc2ccccn2)cc1 [Example 19i, (R)-4-(8-chloro-2-oxo-3-(pyridin-2-ylmethyl)-2,3,4,5-tetrahydro-1H-benzo[e][1,4]diazepine-4-carbonyl)-N-(pyridin-2-yl)benzamide]",1000 to 10000
5,"O=C(Nc1ccccn1)c1cccc(S(=O)(=O)N2Cc3ccc(Cl)cc3NC(=O)[C@H]2Cc2ccccn2)c1 [Example 19j, (R)-3-((8-chloro-2-oxo-3-(pyridin-2-ylmethyl)-2,3-dihydro-1H-benzo[e][1,4]diazepin-4(5H)-yl)sulfonyl)-N-(pyridin-2-yl)benzamide]",10000 to 35000
6,"O=C(Nc1ccccn1)c1ccc(CN2Cc3ccc(Cl)cc3NC(=O)[C@H]2Cc2ccccn2)cc1 [Example 20a, (R)-4-((8-Chloro-2-oxo-3-(pyridin-2-ylmethyl)-2,3-dihydro-1H-benzo[e][1,4]diazepin-4(5H)-yl)methyl)-N-(pyridin-2-yl)benzamide]",1000 to 10000
7,"O=C(Nc1cc(CN2C(=O)c3ccc(Cl)cc3NC(=O)[C@H]2Cc2ccccn2)ccc1C(=O)O)c1ccccn1 [Example 21a, (R)-4-((8-Chloro-2,5-dioxo-3-(pyridin-2-ylmethyl)-2,3-dihydro-1H-benzo[e][1,4]diazepin-4(5H)-yl)methyl)-2-(picolinamido)benzoic Acid]",1000 to 10000
8,"CC(=O)Nc1cc(CN2C(=O)c3ccc(Cl)cc3NC(=O)[C@H]2Cc2ccccn2)ccc1C(=O)O [Example 22a, (R)-2-Acetamido-4-((8-chloro-2,5-dioxo-3-(pyridin-2-ylmethyl)-2,3-dihydro-1H-benzo[e][1,4]diazepin-4(5H)-yl)methyl)benzoic Acid]",100 to 999
9,COCC(=O)Nc1cc(CN2C(=O)c3ccc(Cl)cc3NC(=O)[C@H]2Cc2ccccn2)ccc1C(=O)O [Example 22b],100 to 999
10,O=C(O)c1ccc(CN2C(=O)c3ccc(Cl)cc3NC(=O)[C@H]2Cc2ccccn2)cc1NC(=O)C1CCCCC1 [Example 22c],100 to 999
11,CN(C)CC(=O)Nc1cc(CN2C(=O)c3ccc(Cl)cc3NC(=O)[C@H]2Cc2ccccn2)ccc1C(=O)O [Example 22d],1000 to 10000
12,COCCC(=O)Nc1cc(CN2C(=O)c3ccc(Cl)cc3NC(=O)[C@H]2Cc2ccccn2)ccc1C(=O)O [Example 22e],1000 to 10000
13,O=C(Nc1cc(CN2C(=O)c3ccc(Cl)cc3NC(=O)[C@H]2Cc2ccccn2)ccc1C(=O)O)c1ccncc1 [Example 22f],1000 to 10000
14,O=C(Nc1cc(CN2C(=O)c3ccc(Cl)cc3NC(=O)[C@H]2Cc2ccccn2)ccc1C(=O)O)c1cccnc1 [Example 22g],1000 to 10000
15,O=C(CN1CCOCC1)Nc1cc(CN2C(=O)c3ccc(Cl)cc3NC(=O)[C@H]2Cc2ccccn2)ccc1C(=O)O [Example 22h],1000 to 10000
16,CN1CCC(C(=O)Nc2cc(CN3C(=O)c4ccc(Cl)cc4NC(=O)[C@H]3Cc3ccccn3)ccc2C(=O)O)CC1 [Example 22i],10000 to 35000
17,CN1CCN(CC(=O)Nc2cc(CN3C(=O)c4ccc(Cl)cc4NC(=O)[C@H]3Cc3ccccn3)ccc2C(=O)O)CC1 [Example 22j],1000 to 10000
